Results on 99 molecules are retold here after PubChem BioAssay AID1552 (Sanford-Burnham Center for Chemical Genomics, 2009).

Molecules are shown by their SMILES. Activity calls are given as the source filed them. The rule behind the calls is not given here.

In this experiment the target is Ubiquitin-conjugating enzyme E2 N (Homo sapiens) (UniProt P61088). Description: NMR detection of UBE2N ligand binding – biophysical, purified protein (AID 1552). Conditions: NMR binding to purified UBE2N.
Chain of Ubiquitin-conjugating enzyme E2 N (Homo sapiens) (P61088 whole entry, looked up): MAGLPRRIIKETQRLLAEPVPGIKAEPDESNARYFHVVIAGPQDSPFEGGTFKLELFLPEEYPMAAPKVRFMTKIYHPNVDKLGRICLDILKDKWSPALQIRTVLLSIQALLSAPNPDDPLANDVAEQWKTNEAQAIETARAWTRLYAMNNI
For `CC(C)CCCC(C)C1CCC2C3=CC[C@H]4C[C@@H](O)CC[C@]4(C)C3CC[C@@]21C` (some centres undefined), the Kd – broadly, the equilibrium constant for the complex coming apart – was > 4 mM (inactive).
On to `O=C(OC[C@H]1O[C@H](OC(=O)c2cc(O)c(O)c(OC(=O)c3cc(O)c(O)c(O)c3)c2)[C@H](OC(=O)c2cc(O)c(O)c(OC(=O)c3cc(O)c(O)c(O)c3)c2)[C@@H](OC(=O)c2cc(O)c(O)c(OC(=O)c3cc(O)c(O)c(O)c3)c2)[C@@H]1OC(=O)c1cc(O)c(O)c(OC(=O)c2cc(O)c(O)c(O)c2)c1)c1cc(O)c(O)c(OC(=O)c2cc(O)c(O)c(O)c2)c1`, for which the Kd was > 4 mM (inactive).
Turning to `COc1c2c(c(CC=C(C)C)c3oc(=O)c(-c4ccc(O)cc4)c(O)c13)OC(C)(C)C=C2`, the Kd was > 4 mM (inactive).
With `COc1cccc(=O)c2c(C)n(C)c(C)c12` the figure was > 4 mM (inactive).
With `CC(=O)Nc1cccc(Cn2cccn2)c1` the figure was > 4 mM (inactive); with `COc1cc(OC)cc(-c2nc(N)n[nH]2)c1`, > 4 mM (inactive); with `c1cnc(N2CCSCC2)nc1`, > 4 mM (inactive).
With `OCc1ccc2c(c1)CCO2` the figure was > 4 mM (inactive); with `C1CCN2C[C@@H]3C[C@H](CN4CCCC[C@@H]34)[C@H]2C1`, > 4 mM (inactive).
As to `Cc1occc1C(=O)Nc1nnc(C(F)(F)F)s1`, the Kd was > 4 mM (inactive).
Under `O=c1[nH]c2c(c(=O)n1C1CCCCC1)CCC2` stands > 4 mM (inactive); under `Cc1cc(O)c(NC(=O)c2ccco2)cc1C`, > 4 mM (inactive).
With `C/C=C(/C)C(=O)O[C@H]1CC[C@@]2(C)[C@@H]3CC[C@H]4[C@]5(O)C[C@H](O)[C@@]6(O)[C@@H](CN7C[C@@H](C)CC[C@H]7[C@@]6(C)O)[C@]5(O)C[C@@]42OC13O` the figure was > 4 mM (inactive); with `CCOC(=O)c1csc(C2COc3ccccc3O2)n1` (centres undefined), > 4 mM (inactive).
With `O=C1OCCC1Sc1nc2ccccc2c(=O)[nH]1` (centres undefined) the figure was > 4 mM (inactive).
With `c1ccc(NCc2nc(-c3ccccc3)no2)cc1`, the Kd was > 4 mM (inactive).
Under `Cc1nnc2ccc(N3CCCC3)nn12` stands > 4 mM (inactive); under `O=S1(=O)CCC(NCc2ccccc2)C1` (centres undefined), > 4 mM (inactive).
Take `CC(=O)c1c(O)c(C)c(O)c2c1OC1=CC(=O)C(C(C)=O)C(=O)C12C` (centres undefined): the Kd is > 4 mM (inactive).
`NC12CC3CC(C1)CC(C(=O)O)(C3)C2`: the Kd was > 4 mM (inactive).
Consider `COc1ccc(NC(=O)C(N)=O)cc1Cl`, for which the Kd is > 4 mM (inactive).
In the case of `COc1cc2c(cc1O)[C@@H](Cc1ccc(O)cc1)[N+](C)(C)CC2`, the Kd was > 4 mM (inactive).
For the molecule `Cn1c(CNc2ccccc2)cc(=O)n(C)c1=O`, the Kd is > 4 mM (inactive).
In the case of `CSc1n[nH]c(NCc2cccs2)n1`, the Kd is > 4 mM (inactive).
Turning to `CS(=O)(=O)c1ccccc1C(=O)Nc1nccs1`, the Kd was > 4 mM (inactive).
With `Nc1cc(F)cc(F)c1` the figure was > 4 mM (inactive); with `NC(=O)CCS(=O)(=O)CCN1CCOCC1`, > 4 mM (inactive).
Under `O=C(Cc1cccs1)Nc1ccccn1` stands > 4 mM (inactive).
As for `CC(=O)Nc1ccc(C(=O)n2nc(C)cc2C)cc1`, the Kd was > 4 mM (inactive).
With `O=C(O)c1cccc(-n2cccc2)c1` the figure was > 4 mM (inactive).
As to `Cc1oc(-c2ccccc2)cc1CO`, the Kd was > 4 mM (inactive).
For the molecule `COC(=O)Nc1c(C)n(C)n(-c2ccccc2)c1=O`, the Kd was > 4 mM (inactive).
Under `O=c1[nH]c(=S)[nH]c2c1CCC2` stands > 4 mM (inactive); under `COc1cccc(N2CCNCC2)c1`, > 4 mM (inactive); under `CC(=O)O[C@@H]1CC2C(C)(CC[C@H](O)C2(C)C)C2CC[C@]3(C)C(=CC(=O)O[C@H]3c3ccoc3)C21C` (some centres undefined), > 4 mM (inactive).
With `C#CCCCCCCCCCCCc1ccco1` the figure was > 4 mM (inactive).
With `COc1cc2c(cc1-c1cc3cc4ccoc4cc3oc1=O)OCO2` the figure was > 4 mM (inactive); with `COc1cc(C(=S)N2CCOCC2)ccc1O`, > 4 mM (inactive); with `O=C(c1cc2ccccc2o1)N1CCCCCC1`, > 4 mM (inactive).
As for `COc1cc(OC)c2c(=O)c(OC)c(-c3ccc(OC)c(OC)c3)oc2c1`, the Kd is > 4 mM (inactive).
For the molecule `COc1c(OC)c2occc2c2oc(=O)ccc12`, the Kd is > 4 mM (inactive).
Under `CCOC(=O)c1nc2ccccc2c(=O)n1N` stands > 4 mM (inactive); under `CC(C)(C)c1ccc(SCC(N)=O)cc1`, > 4 mM (inactive); under `C=CCCCCCCCCCCCC(O)CC(O)COC(C)=O` (centres undefined) (tested in a mixture with another compound), > 4 mM (inactive).
Turning to `CCOC(=O)C1CCNCC1`, the Kd was > 4 mM (inactive).
With `Cn1nnc2c(Cl)ncnc21` the figure was > 4 mM (inactive).
Turning to `CC(=O)Nc1nc(-c2cccs2)cs1`, the Kd is > 4 mM (inactive).
Take `CC1(C)Cc2nc3[nH]c(=S)[nH]c(=O)c3cc2CO1`: the Kd is > 4 mM (inactive).
Under `C/C=C/C(=O)Nc1ccc(NC(C)=O)cc1` stands > 4 mM (inactive); under `COc1ccc2c3c([nH]c2c1)C(C)=NCC3`, > 4 mM (inactive).
With `Cc1ccccc1NC(=O)c1ccccc1`, the Kd is > 4 mM (inactive).
With `NC(N)=Nc1nc2ccccc2o1` the figure was > 4 mM (inactive).
As for `CC(=O)Nc1ccc(-c2nc(C)c(C(C)=O)n2O)cc1`, the Kd is > 4 mM (inactive).
Regarding `COc1c(O)cc(O)cc1O`, the Kd was > 4 mM (inactive).
Take `C=C1CCC2C(CC2(C)C)C(=O)CCC1O` (centres undefined): the Kd is > 4 mM (inactive).
Consider `COC1=CC23CCCN2CCc2cc4c(cc2C3C1O)OCO4` (centres undefined), for which the Kd was > 4 mM (inactive).
For the molecule `CC(=O)Nc1nnc(-c2ccccc2)o1`, the Kd was > 4 mM (inactive).
Under `C[C@@H]1O[C@@H](O[C@H]2C[C@@H](O)[C@]3(CO)C4C(CC[C@]3(O)C2)[C@@]2(O)CC[C@H](C3=CC(=O)OC3)[C@@]2(C)C[C@H]4O)[C@H](O)[C@H](O)[C@H]1O` (some centres undefined) stands > 4 mM (inactive); under `Cn1[nH]c2nc3[nH]n(C)c(=O)c3c(-c3ccccc3)c2c1=O`, > 4 mM (inactive).
With `COc1ccc(-c2nnsc2N)cc1` the figure was > 4 mM (inactive).
In the case of `Cc1ccc(-c2nn(C)c(=O)c3ccccc23)cc1CO`, the Kd is > 4 mM (inactive).
`NC(=O)C1CCN(C(=S)c2ccccc2)CC1`: the Kd was > 4 mM (inactive).
In the case of `Cn1[nH]c(C(F)(F)F)cc1=O`, the Kd was > 4 mM (inactive).
With `CC(=O)NN1C(=O)c2cccc3cccc(c23)C1=O` the figure was > 4 mM (inactive).
For `C[C@]12CC(=O)C3C(CC[C@@H]4C[C@H](O)CC[C@]34C)C1CC[C@]2(O)C(=O)CO` (some centres undefined), the Kd is > 4 mM (inactive).
With `c1ccc(-c2csc(Nc3cccnc3)n2)nc1` the figure was > 4 mM (inactive).
`C=C1C(=O)O[C@@H]2C3OC3(C)CC/C=C(\C)CC[C@@H]12` (some centres undefined): the Kd is > 4 mM (inactive).
With `CN(C)C(=S)Nc1ccc([N+](=O)[O-])cc1` the figure was > 4 mM (inactive); with `O=C(O)c1coc2c1C(=O)CCC2`, > 4 mM (inactive).
Take `CC(=O)Cc1nsc(NC(=O)c2ccc(C)cc2)n1`: the Kd was > 4 mM (inactive).
Regarding `Cc1noc(C)c1C(=O)Nc1ccccc1-c1ccccc1`, the Kd was > 4 mM (inactive).
With `OC1CCC(C(F)(F)F)CC1` (centres undefined) the figure was > 4 mM (inactive).
In the case of `CC(=O)N1CCn2c3c(c(=O)c4cc(C)ccc42)CCC31` (centres undefined), the Kd was > 4 mM (inactive).
Under `O=C(Nc1nc2c(s1)CCCC2)c1cccnc1` stands > 4 mM (inactive).
With `Cc1cc(/C=N/O)nc(=O)[nH]1` the figure was > 4 mM (inactive).
`O=c1[nH]c2sc3c(c2c2nncn12)CCCC3`: the Kd is > 4 mM (inactive).
Under `COc1ccccc1NC(=O)C1CCCCC1` stands > 4 mM (inactive).
Under `CSc1nc(C)c(Oc2ccccc2)c(=O)n1C` stands > 4 mM (inactive).
With `Cc1cc(C)n(CC(=O)O)n1`, the Kd is > 4 mM (inactive).
Under `O=C(O)c1cc2ccccc2[nH]1` stands > 4 mM (inactive).
With `Cc1ccc(SCCN2C(=O)NC(C)(C)C2=O)cc1` the figure was > 4 mM (inactive); with `NC(=O)C1CCN(CC2CC=CCC2)CC1` (centres undefined), > 4 mM (inactive); with `O=c1c2ccccc2oc2ccccc12`, > 4 mM (inactive).
On to `C/C(O)=c1/sc2cc(C)nc(=N)n2c1=O`, for which the Kd is > 4 mM (inactive).
Take `Nc1nc(-c2ccccc2)cc(=O)[nH]1`: the Kd was > 4 mM (inactive).
Under `Cc1ccc2nc(SCCC#N)nc(C)c2c1` stands > 4 mM (inactive).
With `O=C(O)c1ccc(CN2CCCCC2)o1` the figure was > 4 mM (inactive).
Under `O=C1CC(c2c[nH]c3ccccc23)C(=O)N1` (centres undefined) stands > 4 mM (inactive); under `O=C(Oc1ccc(-c2nnco2)cc1)N1CCCCC1`, > 4 mM (inactive); under `Nc1nc2[nH]c(=O)c(=O)[nH]c2c(=O)[nH]1`, > 4 mM (inactive).
Regarding `O=c1cnnc(NCc2ccc(F)cc2)[nH]1`, the Kd is > 4 mM (inactive).
Under `O=c1c2ccccc2nc(-c2ccco2)n1-c1nccs1` stands > 4 mM (inactive); under `NC(=O)COc1cccc2cccnc12`, > 4 mM (inactive).
Under `COC(=O)C1[C@H]2C[C@H]3c4[nH]c5ccccc5c4CCN3C[C@@H]2CC[C@@H]1O` (some centres undefined) stands > 4 mM (inactive).
Consider `CC(=O)Nc1ccc(NC(=O)C2CC2)cc1`, for which the Kd is > 4 mM (inactive).
Take `CCOC(=O)c1cc2ccccc2oc1=O`: the Kd was > 4 mM (inactive).
As to `O=C1CCC([N+](=O)[O-])C(c2ccccc2F)N1` (centres undefined), the Kd is > 4 mM (inactive).
In the case of `OC1COCc2nc3ccccc3n2C1` (centres undefined), the Kd was > 4 mM (inactive).
As for `NCc1cc2ccccc2s1`, the Kd is > 4 mM (inactive).
